For 29 molecules, EC50 results are on record in patent US11571423B2, “Small molecule modulators of human sting” (Curadev Pharma Limited, priority 2017, dated 2023).

Where a name gives a salt, the structure may show the parent alone.

The assay deals with hSTING(R232) (Homo sapiens, UniProt Q86WV6, H232R). Kind of assay: Luciferase reporter assay in HEK293T-hSTING-Luciferase cells, R232 (wild type) human STING. The format is cell-based. Conditions: 20 hr stimulation, read-out: R232 human activity (EC50 range). The gist of the method: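 Clonal HEK293T cells stably expressing STING from a pUNO-1 plasmid plus an ISRE/ISG54-driven secreted luciferase reporter; 5×10^5 cells stimulated with compound for 20 hr. Supernatant luciferase read by luminescence, giving fold-induction over baseline and EC50.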
hSTING(R232), sequence (Q86WV6 whole entry H232R): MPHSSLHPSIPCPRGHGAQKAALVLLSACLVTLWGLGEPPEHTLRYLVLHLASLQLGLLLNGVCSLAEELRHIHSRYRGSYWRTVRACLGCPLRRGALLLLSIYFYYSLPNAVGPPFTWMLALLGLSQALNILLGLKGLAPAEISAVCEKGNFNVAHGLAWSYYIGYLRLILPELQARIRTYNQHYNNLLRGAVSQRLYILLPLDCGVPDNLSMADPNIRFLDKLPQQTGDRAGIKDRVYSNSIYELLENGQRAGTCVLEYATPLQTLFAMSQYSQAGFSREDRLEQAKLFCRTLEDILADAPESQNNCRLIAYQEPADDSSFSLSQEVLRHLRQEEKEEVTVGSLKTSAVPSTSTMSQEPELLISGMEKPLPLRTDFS
`CC1c2ccc(C(=O)NCc3c(F)cc(F)cc3F)cc2N(Cc2c(F)cccc2OC(F)F)C(=O)N1C` (centres unmarked) [Example 216, 1-(2-(difluoromethoxy)-6-fluorobenzyl)-3,4-dimethyl-2-oxo-N-(2,4,6-trifluorobenzyl)-1,2,3,4-tetrahydroquinazoline-7-carboxamide]: the EC50 is < 1000 nM.
For `COc1ccc(CN2C(=O)N(C)C(C)c3ccc(C(=O)NCc4c(F)cc(F)cc4F)cc32)c(F)c1` (centres unmarked) [Example 217, 1-(2-fluoro-4-methoxybenzyl)-3,4-dimethyl-2-oxo-N-(2,4,6-trifluorobenzyl)-1,2,3,4-tetrahydroquinazoline-7-carboxamide], the EC50 is < 1000 nM.
For the molecule `CC1c2ccc(C(=O)NCc3c(F)cc(F)cc3F)cc2N(Cc2ccc(F)cc2)C(=O)N1C` (centres unmarked) [Example 218, 1-(4-fluorobenzyl)-3,4-dimethyl-2-oxo-N-(2,4,6-trifluorobenzyl)-1,2,3,4-tetrahydroquinazoline-7-carboxamide], the EC50 is < 1000 nM.
For the molecule `CC1c2ccc(C(=O)NCc3c(F)cc(F)cc3F)cc2N(Cc2ccc(Cl)cc2F)C(=O)N1C` (centres unmarked) [Example 219, 1-(4-chloro-2-fluorobenzyl)-3,4-dimethyl-2-oxo-N-(2,4,6-trifluorobenzyl)-1,2,3,4-tetrahydroquinazoline-7-carboxamide], the EC50 is < 1000 nM.
Regarding `Cc1ccc(F)c(CN2C(=O)N(C)C(C)c3ccc(C(=O)NCc4c(F)cc(F)cc4F)cc32)c1Br` (centres unmarked) [Example 220, 1-(2-bromo-6-fluoro-3-methylbenzyl)-3,4-dimethyl-2-oxo-N-(2,4,6-trifluorobenzyl)-1,2,3,4-tetrahydroquinazoline-7-carboxamide], the EC50 was < 1000 nM.
For `CC1c2ccc(C(=O)NCc3c(F)cc(F)cc3F)cc2N(Cc2ccc(F)cc2Cl)C(=O)N1C` (centres unmarked) [Example 221, 1-(2-chloro-4-fluorobenzyl)-3,4-dimethyl-2-oxo-N-(2,4,6-trifluorobenzyl)-1,2,3,4-tetrahydroquinazoline-7-carboxamide], the EC50 was < 1000 nM.
For `CC1c2ccc(C(=O)NCc3c(F)cc(F)cc3F)cc2N(Cc2c(F)cc(Cl)cc2F)C(=O)N1C` (centres unmarked) [Example 222, 1-(4-chloro-2,6-difluorobenzyl)-3,4-dimethyl-2-oxo-N-(2,4,6-trifluorobenzyl)-1,2,3,4-tetrahydroquinazoline-7-carboxamide], the EC50 is < 1000 nM.
In the case of `Cc1cc(CN2C(=O)N(C)C(C)c3ccc(C(=O)NCc4cc5cc(F)ccc5o4)cc32)n(C)n1` (centres unmarked) [Example 223, 1-((1,3-dimethyl-1H-pyrazol-5-yl)methyl)-N-((5-fluorobenzofuran-2-yl)methyl)-3,4-dimethyl-2-oxo-1,2,3,4-tetrahydroquinazoline-7-carboxamide], the EC50 fell in the range of 1000 to 10000 nM.
Turning to `Cc1nn(C)c(CN2C(=O)N(C)C(C)c3ccc(C(=O)NCc4cc5cc(F)ccc5o4)cc32)c1F` (centres unmarked) [Example 224, 1-((4-fluoro-1,3-dimethyl-1H-pyrazol-5-yl)methyl)-N-((5-fluorobenzofuran-2-yl)methyl)-3,4-dimethyl-2-oxo-1,2,3,4-tetrahydroquinazoline-7-carboxamide], the EC50 is < 1000 nM.
On to `CC1c2ccc(C(=O)NCc3c(F)cc(F)cc3F)cc2N(Cc2c(F)cccc2NS(C)(=O)=O)C(=O)N1C` (centres unmarked) [Example 225, 1-(2-fluoro-6-(methylsulfonamido)benzyl)-3,4-dimethyl-2-oxo-N-(2,4,6-trifluorobenzyl)-1,2,3,4-tetrahydroquinazoline-7-carboxamide], for which the 50% effective concentration (EC50) was in the range of 1000 to 10000 nM.
Consider `CC(=O)Nc1cccc(F)c1CN1C(=O)N(C)C(C)c2ccc(C(=O)NCc3c(F)cc(F)cc3F)cc21` (centres unmarked) [Example 226, 1-(2-acetamido-6-fluorobenzyl)-3,4-dimethyl-2-oxo-N-(2,4,6-trifluorobenzyl)-1,2,3,4-tetrahydroquinazoline-7-carboxamide], for which the EC50 fell in the range of 1000 to 10000 nM.
As for `CC1c2ccc(C(=O)NCc3c(F)cc(F)cc3F)cc2N(Cc2ccc(OCC(=O)O)cc2F)C(=O)N1C` (centres unmarked) [Example 228, 2-(4-((3,4-dimethyl-2-oxo-7-((2,4,6-trifluorobenzyl)carbamoyl)-3,4-dihydroquinazolin-1(2H)-yl)methyl)-3-fluorophenoxy)acetic acid], the concentration for a half-maximal effect (EC50) is > 10000 nM.
On to `CC1c2ccc(C(=O)NCc3c(F)cc(F)cc3F)cc2N(Cc2cc(OCC(=O)O)ccc2F)C(=O)N1C` (centres unmarked) [Example 229, 2-(3-((3,4-dimethyl-2-oxo-7-((2,4,6-trifluorobenzyl)carbamoyl)-3,4-dihydroquinazolin-1(2H)-yl)methyl)-4-fluorophenoxy)acetic acid], for which the EC50 was > 10000 nM.
To `CC1c2ccc(C(=O)NCc3c(F)cc(F)cc3F)cc2N(Cc2ccc(OCCO)cc2F)C(=O)N1C` (centres unmarked) [Example 230, 1-(2-fluoro-4-(2-hydroxyethoxy)benzyl)-3,4-dimethyl-2-oxo-N-(2,4,6-trifluorobenzyl)-1,2,3,4-tetrahydroquinazoline-7-carboxamide] belongs < 1000 nM; to `CC1c2ccc(C(=O)NCc3c(F)cc(F)cc3F)cc2N(Cc2cc(OCCO)ccc2F)C(=O)N1C` (centres unmarked) [Example 233, 1-(2-fluoro-5-(2-hydroxyethoxy)benzyl)-3,4-dimethyl-2-oxo-N-(2,4,6-trifluorobenzyl)-1,2,3,4-tetrahydroquinazoline-7-carboxamide], < 1000 nM; to `CC1c2ccc(C(=O)NCc3c(F)cc(F)cc3F)cc2N(Cc2c(F)cccc2OCC(=O)O)C(=O)N1C` (centres unmarked) [Example 234, 2-(2-((3,4-dimethyl-2-oxo-7-((2,4,6-trifluorobenzyl)carbamoyl)-3,4-dihydroquinazolin-1(2H)-yl)methyl)-3-fluorophenoxy)acetic acid], > 10000 nM.
On to `CC1c2ccc(C(=O)NCc3c(F)cc(F)cc3F)cc2N(Cc2c(F)cccc2OCCO)C(=O)N1C` (centres unmarked) [Example 236, 1-(2-fluoro-6-(2-hydroxyethoxy)benzyl)-3,4-dimethyl-2-oxo-N-(2,4,6-trifluorobenzyl)-1,2,3,4-tetrahydroquinazoline-7-carboxamide], for which the EC50 is < 1000 nM.
Consider `CC1c2ccc(C(=O)NCc3ccc(OCC(=O)O)cc3)cc2N(Cc2c(F)cccc2Cl)C(=O)N1C` (centres unmarked) [Example 240, 2-(4-((1-(2-chloro-6-fluorobenzyl)-3,4-dimethyl-2-oxo-1,2,3,4-tetrahydroquinazoline-7-carboxamido)methyl)phenoxy)acetic acid], for which the concentration for a half-maximal effect (EC50) was > 10000 nM.
With `C[C@H]1c2ccc(C(=O)NCc3c(F)cc(F)cc3F)cc2N(Cc2c(OCC(=O)O)ccc(F)c2F)C(=O)N1C` [Example 244, (S)-2-(2-((3,4-dimethyl-2-oxo-7-((2,4,6-trifluorobenzyl)carbamoyl)-3,4-dihydroquinazolin-1(2H)-yl)methyl)-3,4-difluorophenoxy)acetic acid], the EC50 is < 1000 nM.
Consider `COc1cccc(F)c1CNC(=O)c1ccc2c(c1)N(Cc1c(F)cccc1Cl)C(=O)N(C)[C@H]2C` [Example 245, (S)-1-(2-chloro-6-fluorobenzyl)-N-(2-fluoro-6-methoxybenzyl)-3,4-dimethyl-2-oxo-1,2,3,4-tetrahydroquinazoline-7-carboxamide], for which the EC50 is 1000 to 10000 nM.
For the molecule `COc1cc(F)ccc1CNC(=O)c1ccc2c(c1)N(Cc1c(F)cccc1Cl)C(=O)N(C)[C@H]2C` [Example 247, (S)-1-(2-chloro-6-fluorobenzyl)-N-(4-fluoro-2-methoxybenzyl)-3,4-dimethyl-2-oxo-1,2,3,4-tetrahydroquinazoline-7-carboxamide], the EC50 lay in the range of 1000 to 10000 nM.
On to `COc1cc(F)cc(CNC(=O)c2ccc3c(c2)N(Cc2c(F)cccc2Cl)C(=O)N(C)[C@H]3C)c1` [Example 248, (S)-1-(2-chloro-6-fluorobenzyl)-N-(3-fluoro-5-methoxybenzyl)-3,4-dimethyl-2-oxo-1,2,3,4-tetrahydroquinazoline-7-carboxamide], for which the EC50 was 1000 to 10000 nM.
With `COc1cccc(CNC(=O)c2ccc3c(c2)N(Cc2c(F)cccc2Cl)C(=O)N(C)[C@H]3C)c1F` [Example 249, (S)-1-(2-chloro-6-fluorobenzyl)-N-(2-fluoro-3-methoxybenzyl)-3,4-dimethyl-2-oxo-1,2,3,4-tetrahydroquinazoline-7-carboxamide], the concentration for a half-maximal effect (EC50) lay in the range of 1000 to 10000 nM.
As for `C[C@H]1c2ccc(C(=O)NCc3cc(O)cc(F)c3)cc2N(Cc2c(F)cccc2Cl)C(=O)N1C` [Example 250, (S)-1-(2-chloro-6-fluorobenzyl)-N-(3-fluoro-5-hydroxybenzyl)-3,4-dimethyl-2-oxo-1,2,3,4-tetrahydroquinazoline-7-carboxamide], the EC50 is < 1000 nM.
For `C[C@H]1c2ccc(C(=O)NCc3c(O)cccc3F)cc2N(Cc2c(F)cccc2Cl)C(=O)N1C` [Example 251, (S)-1-(2-chloro-6-fluorobenzyl)-N-(2-fluoro-6-hydroxybenzyl)-3,4-dimethyl-2-oxo-1,2,3,4-tetrahydroquinazoline-7-carboxamide], the EC50 lay in the range of 1000 to 10000 nM.
To `C[C@H]1c2ccc(C(=O)NCc3ccc(F)cc3O)cc2N(Cc2c(F)cccc2Cl)C(=O)N1C` [Example 253, (S)-1-(2-chloro-6-fluorobenzyl)-N-(4-fluoro-2-hydroxybenzyl)-3,4-dimethyl-2-oxo-1,2,3,4-tetrahydroquinazoline-7-carboxamide] belongs 1000 to 10000 nM; to `C[C@H]1c2ccc(C(=O)NCc3cc(F)cc(OCCO)c3)cc2N(Cc2c(F)cccc2Cl)C(=O)N1C` [Example 266, (S)-1-(2-chloro-6-fluorobenzyl)-N-(3-fluoro-5-(2-hydroxyethoxy)benzyl)-3,4-dimethyl-2-oxo-1,2,3,4-tetrahydroquinazoline-7-carboxamide], > 10000 nM.
Turning to `C[C@H]1c2ccc(C(=O)NCc3cccc(O)c3F)cc2N(Cc2c(F)cccc2Cl)C(=O)N1C` [Example 267, (S)-1-(2-chloro-6-fluorobenzyl)-N-(2-fluoro-3-hydroxybenzyl)-3,4-dimethyl-2-oxo-1,2,3,4-tetrahydroquinazoline-7-carboxamide], the concentration giving a half-maximal response (EC50) is < 1000 nM.
On to `C[C@H]1c2ccc(C(=O)NCc3c(F)cc(F)cc3F)cc2N(Cc2c(F)cccc2NC(=O)CN)C(=O)N1C` [Example 272, (S)-1-(2-(2-aminoacetamido)-6-fluorobenzyl)-3,4-dimethyl-2-oxo-N-(2,4,6-trifluorobenzyl)-1,2,3,4-tetrahydroquinazoline-7-carboxamide dihydrochloride], for which the 50% effective concentration (EC50) was in the range of 1000 to 10000 nM.
